The record followed here is paper PMC8658773, “Two New Isoprenoid Flavonoids from Sophora flavescens with Antioxidant and Cytotoxic Activities” (Molecules, 2021).

Experiment [1] in a line: ABTS free radical scavenging assay. The settings on record: for ABTS radical scavenging activity (inhibition rate): 20 μg/mL, SD in brackets. Type of experiment: biochemical. The procedure:
The third assay, the ABTS free radical scavenging screen was performed by previous experiments with slight changes. First, we needed to prepare for the ABTS^+ solution. […] Then, they were mixed with equal volume at room temperature and kept away from light for 12 h, the mixed solution was diluted with ethanol until the absorbance of […]. Thus, the ABTS^+ solution was obtained. Furthermore, the compounds (100 µL, 40 µg/mL) with ABTS^+ solution (100 µL) were also added to the 96-well plates (as the value of Ai) and were interacted for 10 min at room temperature in the dark, then the absorbance at 734 nm was measured. VC was used as the positive control. Antioxidant capacity was calculated according to the first formula (the value of 100 µL ethanol with 100 µL ABTS^+ solution as A0, the value of 100 µL compounds with 100 µL ethanol as Aj). All experiments were carried out in triplicate.

A short description of experiment [2]: PTIO free radical scavenging assay. The settings on record: for PTIO radical scavenging activity (inhibition rate): 8 μg/mL, SD in brackets. Format: biochemical. The method, then: PTIO free radical scavenging was also performed following previous reports with some modification. VC was used as the positive control. PTIO radicals were dissolved with phosphate buffer (PBS) (pH 7.4, 50 mM) with a concentration of 0.05 mg/mL. Then, the samples (40 µL, 40 µg/mL) and PTIO solution (160 µL) were added into 96-well plates (as the value of Ai). After being thoroughly mixed, the reaction solution was incubated at 37 °C in a water-bath for 2 h. Then, the absorbance was measured at 557 nm. PTIO free radical scavenging was calculated using the above equation. (40 µL PBS with 160 µL PTIO as A0, 40 µL compounds with 160 µL PBS as Aj).

Experiment [3] in a line: DPPH free radical scavenging assay. Type of experiment: biochemical. As to conditions: for DPPH radical scavenging activity (inhibition rate): 20 μg/mL, SD in brackets. The procedure:
The in vitro antioxidant activity tests were conducted according to previous reports. Among them, the DPPH free radical scavenging assay was slightly modified. Briefly, the DPPH material was precisely weighed, ethanol solution was added to obtain a concentration of 0.1 mmol/L (to use immediately, or store in the dark). Then, the compounds (100 µL, 40 µg/mL) with DPPH solution (100 µL) (Ai) were added to 96-well plates and incubated for 30 min at room temperature. Subsequently, the activity was measured using the Thermo Scientific Varioskan LUX ([…], VL0L00D0, USA), with an absorbance of 570 nm. Vitamin C (VC) (40 µg/mL) was used as the positive control.
On the technique in general: Loss of DPPH colour is used to gauge radical scavenging.

Experiment [4] concerns LO2 cells. Kind of experiment: Cytotoxic activity (MTS assay), LO2 normal cells. Type of experiment: cell-based, human. As to conditions: Homo sapiens, L02; 10 µM; SD in brackets; read-out: LO2 cell inhibitory activity (Table S7). (Tetrazolium assays rely on reduction of a dye to a coloured formazan, in cell work by metabolically active cells.)
The test system of experiment [5] is HepG2 cells. Kind of experiment: Cytotoxic activity (MTS assay), HepG2. Type of experiment: cell-based, human. The settings on record: Homo sapiens, HepG2, 10 µM; SD in brackets; read-out: HepG2 cell inhibitory activity (Table S4).
The test system of experiment [6] is A549 cells. As to the kind of experiment: Cytotoxic activity (MTS assay), A549. As to conditions: Homo sapiens, A549; 10 µM; SD in brackets; read-out: A549 cell inhibitory activity (Table S5). Format: cell-based, human.
Experiment [7] has as its system MCF7 cells. As to the kind of experiment: Cytotoxic activity (MTS assay), MCF7. Type of experiment: cell-based, human. The settings on record: Homo sapiens, MCF7; 10 µM; SD in brackets; read-out: MCF-7 cell inhibitory activity (Table S6).

Turning to `COc1ccc(C(=O)O)c(O)c1` [Compound 26, 4-methoxysalicylic acid], in experiment [1], the “ABTS radical scavenging activity (inhibition rate)” value is reported as 72.9% (3.0%). In addition, the “PTIO radical scavenging activity (inhibition rate)” value in experiment [2] is on record as 37.7% (1.6%). Moreover, the “DPPH radical scavenging activity (inhibition rate)” value in experiment [3] was 25.4% (4.9%). In addition, the inhibition at 10 µM was -6.2% in experiment [4], 1.5% in experiment [5], 9.4% in experiment [6] and 0.7% in experiment [7].
`C=C(C)[C@H](CCC(C)(C)O)Cc1c(O)cc(OC)c2c1O[C@H](c1ccc(O)cc1O)CC2=O` [Compound 12, kurarinol]: in experiment [1], the “ABTS radical scavenging IC50” value is 1.31 µg/mL. For the same molecule, the “PTIO radical scavenging activity (inhibition rate)” value in experiment [2] is reported as 37.5% (1.7%). Also, the “DPPH radical scavenging activity (inhibition rate)” value in experiment [3] is 30.8% (1.9%). The inhibition at 10 µM in experiment [4] stood at 11.4%; in experiment [5], 0.9%; in experiment [6] it was 37%; in experiment [7] it was 4.8%.
For `CC(C)=CCc1c(O)cc(O)c2c(=O)c(O)c(-c3ccc(O)cc3)oc12` [Compound 15, noranhyoicaritin], in experiment [1], the “ABTS radical scavenging IC50” value came out at 1.91 µg/mL. Moreover, the “PTIO radical scavenging IC50” value in experiment [2] was found to be 2.70 µg/mL. Moreover, the “PTIO radical scavenging activity (inhibition rate)” value in experiment [2] is given as 68.0% (8.1%). Further, the “DPPH radical scavenging IC50” value in experiment [3] came to 2.42 µg/mL. Moreover, the inhibition at 10 µM was 7.7% in experiment [4], 8.8% in experiment [5], 13.4% in experiment [6] and 5.8% in experiment [7].
Take `COc1cc(O)c2c(=O)c(-c3ccc(O)c(OC)c3)coc2c1` [Compound 17, 7,3′-di-O-methyl]: the “ABTS radical scavenging IC50” value in experiment [1] was determined as 2.91 µg/mL. Moreover, the “PTIO radical scavenging activity (inhibition rate)” value in experiment [2] was 38.9% (2.4%). Moreover, in experiment [3], the “DPPH radical scavenging activity (inhibition rate)” value was 42.0% (1.4%). Also, the inhibition at 10 µM in experiment [4] was 1.1%; in experiment [5] it was 8.7%; in experiment [6] it was 40.9%; in experiment [7] it was 5.3%.
With `C=C(C)C(CCC(C)(C)O)Cc1cc(O)c(C(=O)/C=C/c2ccc(O)cc2O)c(OC)c1O` (stereo not shown) [Compound 5, kuraridinol], the “ABTS radical scavenging activity (inhibition rate)” value in experiment [1] is given as 75.7% (1.5%). In addition, the “PTIO radical scavenging activity (inhibition rate)” value in experiment [2] is 37.7% (1.8%). For the same molecule, the “DPPH radical scavenging activity (inhibition rate)” value in experiment [3] is listed as 29.1% (8.7%). Further, the inhibition at 10 µM is -7.2% in experiment [4], 5.6% in experiment [5], -0.2% in experiment [6] and 7.4% in experiment [7].
Consider `C=C(C)[C@H](CC=C(C)C)Cc1c(O)cc(OC)c(C(=O)/C=C/c2ccc(O)cc2O)c1O` [Compound 6, kuraridine], for which the “ABTS radical scavenging IC50” value in experiment [1] amounted to 3.52 µg/mL. The “PTIO radical scavenging activity (inhibition rate)” value in experiment [2] is 40.6% (2.2%). The “DPPH radical scavenging activity (inhibition rate)” value in experiment [3] was 41.9% (5.6%). Further, the inhibition at 10 µM in experiment [4] was -0.2%; in experiment [5] it was 0.9%; in experiment [6], 2%; in experiment [7] it was 15%.
Regarding `CC(C)=CCC(Cc1c(O)cc(O)c2c1OC(c1ccc(O)cc1O)CC2=O)C(C)CO` (stereo not shown) [Compound 9, kushenol Q], the “ABTS radical scavenging IC50” value in experiment [1] was found to be 3.72 µg/mL. Further, the “PTIO radical scavenging activity (inhibition rate)” value in experiment [2] is listed as 36.7% (0.8%). For the same molecule, the “DPPH radical scavenging activity (inhibition rate)” value in experiment [3] was 30.4% (5.4%). In addition, the inhibition at 10 µM is 5.3% in experiment [4], 3.5% in experiment [5], -10.9% in experiment [6] and 4.5% in experiment [7].
With `CC(C)=CCc1c(O)cc(O)c2c1OC(c1ccc(O)cc1)CC2=O` (stereo not shown) [Compound 10, sophoraflavanone B], in experiment [1], the “ABTS radical scavenging activity (inhibition rate)” value is reported as 88.0% (2.1%). Moreover, the “PTIO radical scavenging activity (inhibition rate)” value in experiment [2] is 38.6% (1.3%). For the same molecule, the “DPPH radical scavenging activity (inhibition rate)” value in experiment [3] is 32.2% (1.9%). The inhibition at 10 µM was determined as 4.7% in experiment [4], 9.3% in experiment [5], 8% in experiment [6] and 7.7% in experiment [7].
`O=C(O)c1ccc(O)cc1` [Compound 28, 4-hydroxybenzoic acid]: the “ABTS radical scavenging activity (inhibition rate)” value in experiment [1] is given as 2.2% (0.9%). For the same molecule, in experiment [2], the “PTIO radical scavenging activity (inhibition rate)” value is 37.3% (2.3%). Further, the “DPPH radical scavenging activity (inhibition rate)” value in experiment [3] is listed as 20.4% (8.6%). For the same molecule, the inhibition at 10 µM stood at 2.8% in experiment [4], 10.2% in experiment [5], 15.5% in experiment [6] and 1.1% in experiment [7].
Turning to `O=C1C[C@@H](c2ccc(O)cc2)Oc2cc(O)cc(O)c21` [Compound 11, naringenin], in experiment [1], the “ABTS radical scavenging activity (inhibition rate)” value was 55.4% (2.2%). In experiment [2], the “PTIO radical scavenging activity (inhibition rate)” value is 37.8% (2.2%). The “DPPH radical scavenging activity (inhibition rate)” value in experiment [3] is 24.5% (3.9%). Besides, the inhibition at 10 µM in experiment [4] is 5.8%; in experiment [5] it was 3.6%; in experiment [6] it was 14.7%; in experiment [7], 0.7%.
For the molecule `O=c1ccc2ccc(O)c(O)c2o1` [Compound 25, 7,8-dihydroxycoumarin], the “ABTS radical scavenging activity (inhibition rate)” value in experiment [1] is 97.8% (1.8%). The “PTIO radical scavenging activity (inhibition rate)” value in experiment [2] is given as 46.3% (4.8%). Besides, in experiment [3], the “DPPH radical scavenging IC50” value stood at 0.80 µg/mL. Moreover, the inhibition at 10 µM in experiment [4] amounted to 8.6%; in experiment [5] it was 8.5%; in experiment [6], 32.4%; in experiment [7], 4.8%.
On to `O=c1cc(-c2ccc(O)cc2)oc2cccc(O)c12` [Compound 22, 5,4′-dihydroxyflavone], for which, in experiment [1], the “ABTS radical scavenging activity (inhibition rate)” value was 76.3% (4.7%). In addition, in experiment [2], the “PTIO radical scavenging activity (inhibition rate)” value was 39.4% (1.0%). In experiment [3], the “DPPH radical scavenging activity (inhibition rate)” value is on record as 34.6% (3.4%). In addition, the inhibition at 10 µM in experiment [4] was -4.6%; in experiment [5], 0.6%; in experiment [6], 29.7%; in experiment [7], 9%.
Consider `COc1cc(O)c(CC=C(C)C)c(O)c1C(=O)/C=C/c1ccc(O)cc1` [Compound 7, xanthohumol], for which, in experiment [1], the “ABTS radical scavenging activity (inhibition rate)” value is given as 87.9% (2.0%). Moreover, the “PTIO radical scavenging activity (inhibition rate)” value in experiment [2] is on record as 40.3% (1.4%). Also, in experiment [3], the “DPPH radical scavenging activity (inhibition rate)” value is reported as 34.7% (1.9%). The inhibition at 10 µM turned out to be 13.9% in experiment [4], 10.4% in experiment [5], 16.4% in experiment [6] and 11.7% in experiment [7].
With `O=c1c(O)c(-c2ccc(O)c(O)c2)oc2cc(O)cc(O)c12` [Compound 16, quercetin], the “ABTS radical scavenging IC50” value in experiment [1] worked out at 0.90 µg/mL. The “PTIO radical scavenging IC50” value in experiment [2] amounted to 4.71 µg/mL. Also, in experiment [2], the “PTIO radical scavenging activity (inhibition rate)” value is on record as 62.0% (2.2%). Moreover, the “DPPH radical scavenging IC50” value in experiment [3] amounted to 1.11 µg/mL. The inhibition at 10 µM in experiment [4] worked out at 9.8%; in experiment [5] it was 4.6%; in experiment [6], 12.1%; in experiment [7], 11.9%.
